Assay results as given in PubChem BioAssay AID2060343 (Molecular Pharmacology Branch, DTP, NCI, 2025).

System: 138582-337-R-J1-PDC spheroids with HUVEC/MSC, viability
Test: Anticancer human tumor 138582-337-R-J1-PDC patient-derived Merkel cell tumor cell line growth inhibition [IpAb]
Details: for IC50: curve of first compound; for viability, T/C: stronger effect = lower value
Procedure, shortened: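 Multi-cell spheroids of 60% tumour cells, 25% HUVEC and 15% MSC in ultra-low-attachment U-bottom wells, treated with agents combined with ipatasertib or abemaciclib. Half-log ranges top out near clinical Cmax, or 10 microM when Cmax is unknown.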

[1] = second compound 0.01 µM, first compound 0.00949 µM
[2] = second compound 0.01 µM, first compound 0.03 µM
[3] = second compound 0.01 µM, first compound 0.0949 µM
[4] = second compound 0.01 µM, first compound 0.3 µM
[5] = second compound 0.0316 µM, first compound 0.00949 µM
[6] = second compound 0.0316 µM, first compound 0.03 µM
[7] = second compound 0.0316 µM, first compound 0.0949 µM
[8] = second compound 0.0316 µM, first compound 0.3 µM
[9] = second compound 0.1 µM, first compound 0.00949 µM
[10] = second compound 0.1 µM, first compound 0.03 µM
[11] = second compound 0.1 µM, first compound 0.0949 µM
[12] = second compound 0.1 µM, first compound 0.3 µM
[13] = second compound 0.316 µM, first compound 0.00949 µM
[14] = second compound 0.316 µM, first compound 0.03 µM
[15] = second compound 0.316 µM, first compound 0.0949 µM
[16] = second compound 0.316 µM, first compound 0.3 µM
[17] = second compound 1 µM, first compound 0.00949 µM
[18] = second compound 1 µM, first compound 0.03 µM
[19] = second compound 1 µM, first compound 0.0949 µM
[20] = second compound 1 µM, first compound 0.3 µM
[21] = second compound 0.01 µM, first compound 0.0316 µM
[22] = second compound 0.01 µM, first compound 0.1 µM
[23] = second compound 0.01 µM, first compound 0.316 µM
[24] = second compound 0.01 µM, first compound 1 µM
[25] = second compound 0.0316 µM, first compound 0.0316 µM
[26] = second compound 0.0316 µM, first compound 0.1 µM
[27] = second compound 0.0316 µM, first compound 0.316 µM
[28] = second compound 0.0316 µM, first compound 1 µM
[29] = second compound 0.1 µM, first compound 0.0316 µM
[30] = second compound 0.1 µM, first compound 0.1 µM
[31] = second compound 0.1 µM, first compound 0.316 µM
[32] = second compound 0.1 µM, first compound 1 µM
[33] = second compound 0.316 µM, first compound 0.0316 µM
[34] = second compound 0.316 µM, first compound 0.1 µM
[35] = second compound 0.316 µM, first compound 0.316 µM
[36] = second compound 0.316 µM, first compound 1 µM
[37] = second compound 1 µM, first compound 0.0316 µM
[38] = second compound 1 µM, first compound 0.1 µM
[39] = second compound 1 µM, first compound 0.316 µM
[40] = second compound 1 µM, first compound 1 µM
[41] = second compound 0.01 µM, first compound 3.16 µM
[42] = second compound 0.01 µM, first compound 10 µM
[43] = second compound 0.0316 µM, first compound 3.16 µM
[44] = second compound 0.0316 µM, first compound 10 µM
[45] = second compound 0.1 µM, first compound 3.16 µM
[46] = second compound 0.1 µM, first compound 10 µM
[47] = second compound 0.316 µM, first compound 3.16 µM
[48] = second compound 0.316 µM, first compound 10 µM
[49] = second compound 1 µM, first compound 3.16 µM
[50] = second compound 1 µM, first compound 10 µM
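Note: spheroids exposed to compounds for seven days.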
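Throughout, for viability, T/C: 100% = DMSO vehicle control viability.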

CC(=O)c1c(C)c2cnc(Nc3ccc(N4CCNCC4)cn3)nc2n(C2CCCC2)c1=O + CCN1CCN(Cc2ccc(Nc3ncc(F)c(-c4cc(F)c5nc(C)n(C(C)C)c5c4)n3)nc2)CC1
IC50 (second compound 0.01 µM): > 300 nM | IC50 (second compound 0.0316 µM): > 300 nM | IC50 (second compound 0.1 µM): > 300 nM | IC50 (second compound 0.316 µM): > 300 nM | IC50 (second compound 1 µM): > 300 nM | viability, T/C (second compound 0.01 µM, first compound 0.000949 µM): 97.9% | viability, T/C (second compound 0.01 µM, first compound 0.003 µM): 91.1% | viability, T/C [1]: 88.1% | viability, T/C [2]: 92.5% | viability, T/C [3]: 93.4% | viability, T/C [4]: 86.6% | viability, T/C (second compound 0.0316 µM, first compound 0.000949 µM): 91.2% | viability, T/C (second compound 0.0316 µM, first compound 0.003 µM): 89.5% | viability, T/C [5]: 79.7% | viability, T/C [6]: 89% | viability, T/C [7]: 88.3% | viability, T/C [8]: 81.8% | viability, T/C (second compound 0.1 µM, first compound 0.000949 µM): 84.6% | viability, T/C (second compound 0.1 µM, first compound 0.003 µM): 91.5% | viability, T/C [9]: 85.1% | viability, T/C [10]: 88.7% | viability, T/C [11]: 82% | viability, T/C [12]: 75% | viability, T/C (second compound 0.316 µM, first compound 0.000949 µM): 93.6% | viability, T/C (second compound 0.316 µM, first compound 0.003 µM): 86.6% | viability, T/C [13]: 85.3% | viability, T/C [14]: 79.7% | viability, T/C [15]: 87.6% | viability, T/C [16]: 79.7% | viability, T/C (second compound 1 µM, first compound 0.000949 µM): 99.4% | viability, T/C (second compound 1 µM, first compound 0.003 µM): 102% | viability, T/C [17]: 93.3% | viability, T/C [18]: 88.6% | viability, T/C [19]: 92.6% | viability, T/C [20]: 84.7%

CC(C)(C)c1cnc(CSc2cnc(NC(=O)C3CCNCC3)s2)o1 + CCN1CCN(Cc2ccc(Nc3ncc(F)c(-c4cc(F)c5nc(C)n(C(C)C)c5c4)n3)nc2)CC1
IC50 (second compound 0.01 µM): 145 nM | IC50 (second compound 0.0316 µM): 124 nM | IC50 (second compound 0.1 µM): 120 nM | IC50 (second compound 0.316 µM): 99.5 nM | IC50 (second compound 1 µM): 67.7 nM | viability, T/C [1]: 107% | viability, T/C [2]: 109% | viability, T/C [3]: 79% | viability, T/C [4]: 0.85% | viability, T/C (second compound 0.01 µM, first compound 0.949 µM): 0.5% | viability, T/C (second compound 0.01 µM, first compound 3 µM): 0.66% | viability, T/C [5]: 96.7% | viability, T/C [6]: 103% | viability, T/C [7]: 64.9% | viability, T/C [8]: 0.68% | viability, T/C (second compound 0.0316 µM, first compound 0.949 µM): 0.35% | viability, T/C (second compound 0.0316 µM, first compound 3 µM): 0.65% | viability, T/C [9]: 91.6% | viability, T/C [10]: 91.3% | viability, T/C [11]: 62.4% | viability, T/C [12]: 0.43% | viability, T/C (second compound 0.1 µM, first compound 0.949 µM): 0.5% | viability, T/C (second compound 0.1 µM, first compound 3 µM): 0.5% | viability, T/C [13]: 92.9% | viability, T/C [14]: 96.5% | viability, T/C [15]: 52.1% | viability, T/C [16]: 0.57% | viability, T/C (second compound 0.316 µM, first compound 0.949 µM): 0.45% | viability, T/C (second compound 0.316 µM, first compound 3 µM): 0.7% | viability, T/C [17]: 88.7% | viability, T/C [18]: 94.7% | viability, T/C [19]: 32.7% | viability, T/C [20]: 0.63% | viability, T/C (second compound 1 µM, first compound 0.949 µM): 0.5% | viability, T/C (second compound 1 µM, first compound 3 µM): 0.78%

COc1c(OCCCN2CCOCC2)ccc2c3n(c(=NC(=O)c4cnc(N)nc4)nc12)CCN3 + CCN1CCN(Cc2ccc(Nc3ncc(F)c(-c4cc(F)c5nc(C)n(C(C)C)c5c4)n3)nc2)CC1
IC50 (second compound 0.01 µM): 48.1 nM | IC50 (second compound 0.0316 µM): 42.1 nM | IC50 (second compound 0.1 µM): 43.2 nM | IC50 (second compound 0.316 µM): 42.7 nM | IC50 (second compound 1 µM): 31.3 nM | viability, T/C (second compound 0.01 µM, first compound 0.00316 µM): 91.8% | viability, T/C (second compound 0.01 µM, first compound 0.01 µM): 80.9% | viability, T/C [21]: 58.5% | viability, T/C [22]: 33.7% | viability, T/C [23]: 15.2% | viability, T/C [24]: 1.9% | viability, T/C (second compound 0.0316 µM, first compound 0.00316 µM): 93.2% | viability, T/C (second compound 0.0316 µM, first compound 0.01 µM): 73.2% | viability, T/C [25]: 56.7% | viability, T/C [26]: 35.1% | viability, T/C [27]: 14.7% | viability, T/C [28]: 1.66% | viability, T/C (second compound 0.1 µM, first compound 0.00316 µM): 84.1% | viability, T/C (second compound 0.1 µM, first compound 0.01 µM): 76.5% | viability, T/C [29]: 55.4% | viability, T/C [30]: 32.8% | viability, T/C [31]: 11.6% | viability, T/C [32]: 1.67% | viability, T/C (second compound 0.316 µM, first compound 0.00316 µM): 85.9% | viability, T/C (second compound 0.316 µM, first compound 0.01 µM): 74.2% | viability, T/C [33]: 57.5% | viability, T/C [34]: 31.4% | viability, T/C [35]: 11.8% | viability, T/C [36]: 2.07% | viability, T/C (second compound 1 µM, first compound 0.00316 µM): 98.3% | viability, T/C (second compound 1 µM, first compound 0.01 µM): 72% | viability, T/C [37]: 56.6% | viability, T/C [38]: 18.8% | viability, T/C [39]: 5.6% | viability, T/C [40]: 2.69%

Cc1nc(NC(=O)N2CCCC2C(N)=O)sc1-c1ccnc(C(C)(C)C(F)(F)F)c1 (stereo not given) + CCN1CCN(Cc2ccc(Nc3ncc(F)c(-c4cc(F)c5nc(C)n(C(C)C)c5c4)n3)nc2)CC1
IC50 (second compound 0.01 µM): 1850 nM | IC50 (second compound 0.0316 µM): 1410 nM | IC50 (second compound 0.1 µM): 1140 nM | IC50 (second compound 0.316 µM): 1010 nM | IC50 (second compound 1 µM): 462 nM | viability, T/C [21]: 95.2% | viability, T/C [22]: 81.4% | viability, T/C [23]: 73.2% | viability, T/C [24]: 59% | viability, T/C [41]: 45.4% | viability, T/C [42]: 13.7% | viability, T/C [25]: 94.1% | viability, T/C [26]: 82.3% | viability, T/C [27]: 69% | viability, T/C [28]: 55.4% | viability, T/C [43]: 40.1% | viability, T/C [44]: 18.2% | viability, T/C [29]: 88.1% | viability, T/C [30]: 78.7% | viability, T/C [31]: 59.2% | viability, T/C [32]: 56.4% | viability, T/C [45]: 35.2% | viability, T/C [46]: 9.25% | viability, T/C [33]: 90.8% | viability, T/C [34]: 74.8% | viability, T/C [35]: 69.7% | viability, T/C [36]: 48.2% | viability, T/C [47]: 32.1% | viability, T/C [48]: 6.45% | viability, T/C [37]: 89.3% | viability, T/C [38]: 84.2% | viability, T/C [39]: 54.4% | viability, T/C [40]: 35.1% | viability, T/C [49]: 10.7% | viability, T/C [50]: 1.63%

Cn1nccc1Nc1nccc(-c2ccn(C(CO)c3ccc(Cl)c(F)c3)c(=O)c2)n1 (stereo not given) + CCN1CCN(Cc2ccc(Nc3ncc(F)c(-c4cc(F)c5nc(C)n(C(C)C)c5c4)n3)nc2)CC1
IC50 (second compound 0.01 µM): > 10000 nM | IC50 (second compound 0.0316 µM): > 10000 nM | IC50 (second compound 0.1 µM): > 10000 nM | IC50 (second compound 0.316 µM): > 10000 nM | IC50 (second compound 1 µM): > 10000 nM | viability, T/C [21]: 99.8% | viability, T/C [22]: 92.3% | viability, T/C [23]: 90.1% | viability, T/C [24]: 94.8% | viability, T/C [41]: 107% | viability, T/C [42]: 154% | viability, T/C [25]: 88.3% | viability, T/C [26]: 90.5% | viability, T/C [27]: 82.7% | viability, T/C [28]: 91.9% | viability, T/C [43]: 107% | viability, T/C [44]: 149% | viability, T/C [29]: 79.9% | viability, T/C [30]: 89.8% | viability, T/C [31]: 79.6% | viability, T/C [32]: 90.2% | viability, T/C [45]: 108% | viability, T/C [46]: 134% | viability, T/C [33]: 89.8% | viability, T/C [34]: 82.7% | viability, T/C [35]: 88.6% | viability, T/C [36]: 96% | viability, T/C [47]: 124% | viability, T/C [48]: 173% | viability, T/C [37]: 106% | viability, T/C [38]: 96% | viability, T/C [39]: 83.2% | viability, T/C [40]: 97.6% | viability, T/C [49]: 142% | viability, T/C [50]: 178%
